The record followed here is BindingDB's records for doi:10.1016/0960-894X(95)00565-B (1996).

Bounds are passed on as bounds.

The target in this experiment is Arachidonate 15-lipoxygenase (Oryctolagus cuniculus). The experiment in a line: Inhibitory activity against reticulocyte 15-lipoxygenase in rabbit was evaluated.
For `COc1cc(CCc2ccc(NC(=O)c3ccc(C)cc3O)cc2)ccc1O` [2-Hydroxy-N-{4-[2-(4-hydroxy-3-methoxy-phenyl)-ethyl]-phenyl}-4-methyl-benzamide], the IC50 (commonly the concentration that gives 50% inhibition) was more than 25 µM.
For the compound `O=C(O)c1cccc(C(=O)Nc2ccc(CCc3ccc(O)c(O)c3)cc2)c1O` [N-{4-[2-(3,4-Dihydroxy-phenyl)-ethyl]-phenyl}-2-hydroxy-isophthalamic acid], the IC50 was more than 25 µM.
To `O=C(Nc1ccc(CCc2ccc(O)c(O)c2)cc1)c1cc(Br)ccc1O` [5-Bromo-N-{4-[2-(3,4-dihydroxy-phenyl)-ethyl]-phenyl}-2-hydroxy-benzamide] belongs 1.5 µM; to `COc1ccc(CCc2ccc(NC(=O)c3ccccc3O)cc2)cc1OC` [N-{4-[2-(3,4-Dimethoxy-phenyl)-ethyl]-phenyl}-2-hydroxy-benzamide], more than 25 µM; to `O=C(Nc1ccc(CCc2ccc(O)c(O)c2)cc1)c1cccc(Cl)c1O` [3-Chloro-N-{4-[2-(3,4-dihydroxy-phenyl)-ethyl]-phenyl}-2-hydroxy-benzamide], 1.2 µM.
To `O=C(Nc1ccc(CCc2ccc(O)c(O)c2)cc1)c1ccc(-c2ccccc2)cc1O` [3-Hydroxy-biphenyl-4-carboxylic acid {4-[2-(3,4-dihydroxy-phenyl)-ethyl]-phenyl}-amide] belongs more than 25 µM; to `O=C(Nc1ccc(CCc2ccc(O)c(O)c2)cc1)c1ccc(O)cc1O` [N-{4-[2-(3,4-Dihydroxy-phenyl)-ethyl]-phenyl}-2,4-dihydroxy-benzamide], 5 µM.
To `Cc1ccc(C(=O)N(C)c2ccc(CCc3ccc(O)c(O)c3)cc2)c(O)c1` [N-{4-[2-(3,4-Dihydroxy-phenyl)-ethyl]-phenyl}-2-hydroxy-4,N-dimethyl-benzamide] belongs 5 µM.
